Test results taken from patent US11319306B2, “Compositions and methods for treating neurodegenerative diseases” (Azevan Pharmaceuticals, Inc., priority 2014, dated 2022).
Like-named read-outs stand apart in the source and are kept apart here.

What was measured:
[1] = tested on: C57Bl/6J males; experiment: Social interaction test after chronic social subjugation; format: in vivo, mice
Text: Anti-depressant Effect in the Social Interaction Test. […] A rapid subjugation paradigm in mice lead to diminished social interaction behavior, where the dependent measures are distance traveled and time in the Interaction Zone. A 28-day treatment regimen with chlordiazepoxide (CDP), a standard anxiolytic, had no effect on deficits produced by chronic subordination. Additional details are described in Berton et al. Essential role of BDNF in the mesolimbic dopamine pathway in social defeat stress. Science 311(5762):864-8 (Feb. 10, 2006).
Briefly, C57Bl/6J males are defeated daily for 10 days by resident, highly aggressive CF-1 males. After 5 minutes of direct exposure, a perforated plastic partition is inserted into the cage that allowed olfactory and visual contact without physical defeat for the remaining 23 hr 55 min each day. The C57 males are exposed to a different resident male in a different cage each day to increase the stress of the procedure (it is observed that all CF-1 males attacked the intruder each day). At the end of the 10 day defeat procedure, the C57 males are tested in an open field apparatus during the dark phase. A dominant male is caged in an area of the open field apparatus termed the “social interaction zone.” Time and distance traveled in the zone are recorded. The C57 males are then divided randomly among the following treatments: AVN246-HCl (2 mg/kg), saline vehicle (0.45%), or chlordiazepoxide (10 mg/kg). Treatments are given daily (i.p.) for 28 days and the animals are retested. Behavioral changes are determined by calculating difference scores (Post-Pretest) and these scores are analyzed.

[2] = Pharmacokinetics; format: in vivo; details: b.i.d. dosing
Text: Pharmacokinetics. Compounds described herein are rapidly absorbed after oral administration. Compounds described herein cross the blood-brain-barrier and achieve therapeutically effective concentrations in the CNS. Compounds described herein may be dosed according to a wide variety of protocols, including but not limited to q.d., b.i.d., and the like.

[3] = tested on: awake rats; experiment: Resident-intruder model of stress and aggression in rats, awake fMRI neuroimaging; format: in vivo, rat; details: pretreatment 5 mg/kg 90 minutes before test session, mate + intruder; listed as AVN246
Text: Resident-intruder model of stress and aggression in rats. Neuroimaging is used to assess the blockade of stress/arousal with test compound compared to control. The effect of AVN251-HCl on functional circuitry was examined using the imaging method for awake rats. Additional details of the assay are described in Ferris et al. Imaging the neural circuitry and chemical control of aggressive motivation.
Male rats in the company of a female cage mate piloerect in the presence of a male intruder. Piloerection is a sign of stress and aggressive intent and is associated with activation of stress/arousal circuits in the brain. Stress circuit activation in response to an intruder male is assessed by obtaining brain scans viewed from a caudal/dorsal perspective as translucent shells. The localization of activated voxels is mapped as 3D volumes of activation, which are composed of 10 subjects each. Once fully registered and segmented, the statistical responses for each subject are averaged on a voxel-by-voxel basis. Those averaged voxels exceeding a 2.0% threshold are shown in their appropriate spatial location. Functional images are acquired on awake rats at 4.7 T.
Resident male rats from six male/female pairs are imaged while fully awake, and presented with their mate, or their mate+an intruder, a highly stressful stimulus. […] The total volume of brain activation for resident males confronted with their mate alone, mate plus intruder, and mate plus intruder in the presence of AVN251-HCl are viewed as 3D models.
Awake rats are imaged when presented with their mate, or their mate+an intruder. […] In each scan, the dark shaded areas represent activation of vasopressin receptor signaling.

[4] = tested on: human brain; experiment: fMRI BOLD imaging of test subjects given intranasal AVP (neurodegenerative disease model), emotional faces task; format: in vivo; details: following IN-AVP, compared to placebo
Protocol: Neurodegenerative disease (ND) model. Test subjects are randomized to an ND model group (for example, n=15), and a baseline control group (for example, n=14). The ND model group is administered intranasal arginine vasopressin (IN-AVP), 40 IU Pitressin (JHP Pharmaceuticals) in a sterile aqueous solution. IN-AVP doses are administered in 3 mL intranasal atomizers (MAD300; Wolfe Tory Medical, Salt Lake City) 45 minutes prior to fMRI imaging. The baseline control group is administered intranasal vehicle only. All test subjects are evaluated by fMRI imaging.
fMRI imaging. Data are acquired with a Philips Achieva Quasar dual 16 Channel 3T MRI scanner at the University of Chicago Brain Research Imaging Center using a reverse spiral imaging sequence to minimize ventral brain signal dropout. […] Categories include: angry faces, neutral faces, happy faces, and a fixation point. Test subjects are given the “implicit” task of identifying the gender of each image by button press. Statistical parametric maps are generated based on pre-processed 3 mm^3 images that are spatially smoothed with an 8 mm kernel, bandpass filtered to remove drift, checked for excessive movement, and movement-corrected. Images from each individual are warped to an echoplanar image template in Montreal Neurological Institute space. Voxelwise whole brain analysis is conducted on data thresholded at >10 contiguous voxels, with small volume correction p<0.05, to examine effects of test compound versus placebo on BOLD activity in a priori regions of interest (ROI). ROIs of the identified clusters of BOLD differences are extracted as parameter estimates of average BOLD signal intensity in anatomically defined substructures and exported into SPSS (IBM; Armont, N.Y.) for ANCOVA, covarying for baseline parameter estimates in matching ROIs. Extracted parameter estimates of a priori ROIs are also examined with RM-ANOVA in SPSS with the within subjects factor and between subjects factors of all combinations of test compound versus placebo, and IN-AVP versus intranasal placebo. Comparisons are made between emotion conditions (angry faces) and various neutral conditions (neutral faces, happy faces, fixation points). Comparisons are also made between emotion conditions (neutral faces) and various neutral conditions (happy faces, fixation points).
Neuropsychiatric symptom treatment with vasopressin antagonists. A first group of test subjects in a baseline control group receiving intranasal placebo is randomized to test compound or placebo. A second group of test subjects in a ND model group receiving IN-AVP is randomized to test compound or placebo. Test compound, such as SRX228, SRX246, SRX251, SRX296, or SRX576, or placebo is administered in blinded form for 5-10 days (mean 7.3+/−1.3 days; minimum 5 days; […]) prior to fMRI. Alternatively, test compound, such as SRX228, SRX246, SRX251, SRX296, and SRX576, or placebo is administered in blinded form after IN-AVP or intranasal placebo administration, and prior to fMRI. […] For example, test compound is SRX246 (n=15; 80, 120, or 160 mg po bid) versus placebo (n=14) in oral capsules; or test compound is SRX251 (n=15; 80, 120, or 160 mg po bid) versus placebo (n=14) in oral capsules.

[5] = molecular target: T1, V1b receptor (Homo sapiens, UniProt P47901); experiment: Human or rat vasopressin V1b cell-based receptor binding assay; details: receptor selectivity table; read-out: inhibition data Ki, V1b
T1 construct: expressed in transfected cells; host or cells: CHO-K1 (ATCC), vector pCI-neo, G418-selected clones
T1 sequence (P47901 1-424): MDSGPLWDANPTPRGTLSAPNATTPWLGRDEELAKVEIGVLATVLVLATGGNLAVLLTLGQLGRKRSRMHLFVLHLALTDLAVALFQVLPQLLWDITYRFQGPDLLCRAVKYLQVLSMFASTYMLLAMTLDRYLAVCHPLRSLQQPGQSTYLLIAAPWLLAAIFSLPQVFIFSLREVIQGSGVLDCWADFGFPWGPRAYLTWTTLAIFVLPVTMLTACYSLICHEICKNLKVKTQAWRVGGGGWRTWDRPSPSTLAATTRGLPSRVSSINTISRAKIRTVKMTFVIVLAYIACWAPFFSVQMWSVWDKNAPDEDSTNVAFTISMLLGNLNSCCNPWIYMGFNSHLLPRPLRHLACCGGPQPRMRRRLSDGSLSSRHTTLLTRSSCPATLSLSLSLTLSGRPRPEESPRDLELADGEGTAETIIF
Text: Human vasopression V1b receptor-expressing cells. Human vasopressin receptor 1b (hV1b) cDNA (see, Lolait et al., “Extrapituitary expression of the rat V1b vasopressin receptor gene” Proc. Natl. Acad. Sci. USA. 92:6783-7 (1995); de Keyzer et al., “Cloning and characterization of the human V3(V1b) pituitary vasopressin receptor” FEBS Lett. 356:215-20 (1994); Sugimoto et al., “Molecular cloning and functional expression of a cDNA encoding the human V1b vasopressin receptor” J. Biol. Chem. 269:27088-92 (1994)) was inserted into a mammalian cell expression vector PCI-neo (Promega) at EcoR1 site. The recombinant plasmid carrying hV1b cDNA was identified from transformed E. Coli clones and used for the transfection of Chinese hamster ovary cell (CHO-Kl, ATCC). Two micrograms of hV1b receptor DNA was introduced into 10^5 CHO cells cultured in 6-well plate, using Fugene-6 mediated transfection technique (Boehringer Mannheim). Twenty-four hrs post transfection, Cells were then cultured under selection of G-418 (0.25 mg/ml) supplemented to the culture medium. Three days later, limited dilution was carried out to obtain single cell clones in 96-well plates. […]
Human or rat vasopression V1b cell-based receptor binding assay. […] Samples were counted in a liquid scintillation counter (Beckman LS3801). IC50 and Ki values were calculated using Prism Curve fitting software. […]

[6] = molecular target: V2 (Homo sapiens, UniProt P30518); experiment: V2 receptor inhibition data (Ki); format: binding; details: receptor selectivity table
[7] = molecular target: T2, human V1a receptor (Homo sapiens, UniProt P37288); experiment: Human vasopressin V1a receptor binding assay (3H-AVP competition, hV1a CHO cells)
T2 construct: host or cells: CHO cells (hV1a cell line)
How it was run: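 Whole CHO cells expressing hV1a were incubated with 1 nM 3H-AVP (as printed "InM") and 10-fold dilutions of compound in HEPES/BSA/DMEM buffer, pH 7.0, for 45 min at 37 °C. Non-specific binding was defined with 100 nM cold AVP. Bound radioactivity was SDS-solubilised and counted by scintillation; IC50 from curve fitting.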

[8] = difference score (Post-Pretest), daily i.p. for 28 days

T2 sequence (P37288 whole entry): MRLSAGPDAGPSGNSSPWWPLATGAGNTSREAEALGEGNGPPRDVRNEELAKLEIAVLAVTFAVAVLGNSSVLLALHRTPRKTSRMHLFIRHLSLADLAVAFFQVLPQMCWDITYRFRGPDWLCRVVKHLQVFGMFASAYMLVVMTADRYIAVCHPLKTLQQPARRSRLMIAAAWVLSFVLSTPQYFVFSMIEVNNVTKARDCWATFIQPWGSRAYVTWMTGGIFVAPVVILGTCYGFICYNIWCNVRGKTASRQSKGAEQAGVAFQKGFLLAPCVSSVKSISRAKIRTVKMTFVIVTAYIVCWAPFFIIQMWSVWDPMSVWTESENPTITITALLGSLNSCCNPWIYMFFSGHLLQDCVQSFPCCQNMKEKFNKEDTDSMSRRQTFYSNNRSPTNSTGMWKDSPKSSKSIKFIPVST
Sequence of V2 (P30518 whole entry): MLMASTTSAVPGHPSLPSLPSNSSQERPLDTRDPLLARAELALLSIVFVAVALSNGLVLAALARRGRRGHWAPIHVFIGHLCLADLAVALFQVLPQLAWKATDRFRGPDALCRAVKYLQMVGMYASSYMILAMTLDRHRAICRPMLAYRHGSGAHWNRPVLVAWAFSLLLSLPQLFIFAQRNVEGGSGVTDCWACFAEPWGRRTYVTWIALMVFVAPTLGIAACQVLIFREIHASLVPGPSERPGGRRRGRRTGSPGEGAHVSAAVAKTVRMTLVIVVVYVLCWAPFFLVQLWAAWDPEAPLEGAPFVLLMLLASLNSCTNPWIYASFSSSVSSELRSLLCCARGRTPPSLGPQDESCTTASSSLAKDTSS

SMILES: CNC1=Nc2ccc(Cl)cc2C(c2ccccc2)=[N+]([O-])C1 [CDP, chlordiazepoxide]
- effect on social interaction deficits after chronic subordination ([1]; 28-day treatment): no effect
- Distance (traveled in the interaction zone) [1, 8]: 1.0 ± 5
- Time (in the interaction zone) [1, 8]: 0.0 ± 5

SMILES: C[C@@H](NC(=O)[C@@H](CC(=O)N1CCC(N2CCCCC2)CC1)N1C(=O)[C@@H](N2C(=O)OC[C@@H]2c2ccccc2)[C@H]1/C=C/c1ccccc1)c1ccccc1 [Example 224, 2(R)-[[4-(Piperidinyl)piperidinyl]carbonylmethyl]-2-[3(S)-(4(S)-phenyloxazolidin-2-on-3-yl)-4(R)-(2-styryl)azetidin-2-on-1-yl]acetic acid N—[(R)-α-methylbenzyl]amide]
- T1/2 [2]: improved
- accumulation [2]: 1.7 fold
- stress/arousal response in amygdala, cortex, hippocampus and thalamus [3]: blocked the stress/arousal response
- BOLD activation signal in anterior cingulate cortex and medial prefrontal cortex ([4]; posttreatment, angry faces versus happy faces): significantly decreases
- BOLD activation signal in temporoparietal cortex (Brodmann Area 39) and amygdala ([4]; posttreatment, angry faces versus happy faces, p<0.05): significantly decreases
- BOLD activation signal in temporoparietal cortex (Brodmann Area 39) and amygdala ([4]; pretreatment, angry faces versus fixation point, p<0.001): significantly decreases
- BOLD activation signal in medial prefrontal cortex ([4]; pretreatment, angry faces versus fixation point, p<0.005): significantly decreases
- cortical reactivity to angry faces in anterior cingulate cortex and medial superior prefrontal cortex ([4]; pretreatment): significantly attenuated

SMILES: C[C@@H](NC(=O)[C@@H](CC(=O)N1CCC(N2CCCCC2)CC1)N1C(=O)[C@@H](N2C(=O)OC[C@@H]2c2ccccc2)[C@H]1/C=C/c1cccc(I)c1)c1ccccc1 [Example 266]
- Ki [5]: > 100 nM
- Ki [6]: > 1000 nM
- IC50 ([7]; 3H-AVP competition, CHO cells expressing human V1a, read-out: V1a Binding Affinity IC50): 1.8 nM
- Ki ([7]; 3H-AVP competition, CHO cells expressing human V1a, read-out: V1a Ki): 1.1 nM
- Ki ([7]; receptor selectivity table, read-out: inhibition data Ki, V1a): 1.1 nM
